Assays:
[1] = molecular target: Beta Secretase enzyme (BACE) (Homo sapiens, UniProt P56817); test: In vitro enzymatic BACE FRET (fluorescence resonance energy transfer) assay; type: biochemical; details: average IC50, enzyme assay; read-out: BACE 1 FRET assay
In short: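 Enzyme activity was measured at pH 4.2 (0.05 M acetate, 10% DMSO final, 100 uM genapol) by cleavage of a 50 nM quenched fluorogenic peptide. After one hour, Tris was added to neutralise the pH and fluorescence was recorded.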

[2] = tested on: Aβ40 in conditioned medium of cells stably expressing Amyloid Precursor Protein (APP); test: In vitro BACE cell-based assay (Aβ40 in conditioned medium, sandwich ELISA); details: Homo sapiens, HEK293, average IC50; read-out: HEK cell assay
In short: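 Secreted Aβ40 is captured with pAb40 and detected with biotinylated 6E10, read by europium time-resolved fluorescence. IC50 comes from percent inhibition versus concentration.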

Sequence of Beta Secretase enzyme (BACE) (P56817 46-501, species assumed): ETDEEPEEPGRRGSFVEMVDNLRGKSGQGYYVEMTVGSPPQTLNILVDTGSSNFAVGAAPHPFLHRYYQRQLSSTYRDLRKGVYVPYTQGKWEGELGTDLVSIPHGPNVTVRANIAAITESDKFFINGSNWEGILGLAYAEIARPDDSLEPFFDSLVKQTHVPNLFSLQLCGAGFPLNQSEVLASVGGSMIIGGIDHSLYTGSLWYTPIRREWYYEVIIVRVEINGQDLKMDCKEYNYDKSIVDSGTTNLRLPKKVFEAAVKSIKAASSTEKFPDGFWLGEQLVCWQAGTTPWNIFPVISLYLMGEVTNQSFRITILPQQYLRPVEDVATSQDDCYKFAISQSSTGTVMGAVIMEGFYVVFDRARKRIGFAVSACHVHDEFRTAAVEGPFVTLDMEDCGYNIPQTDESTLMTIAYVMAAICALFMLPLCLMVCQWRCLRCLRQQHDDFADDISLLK

| SMILES | IC50 [1] [nM] | IC50 [2] [nM] |
| --- | --- | --- |
| NC1=N[C@@]2(CO1)c1cc(C#CC3CC3)ccc1Oc1ncc(N3CCC(F)(F)C3)cc12 [Example 178, (5S)-7-(cyclopropylethynyl)-3-(3,3-difluoro-1-pyrrolidinyl)spiro[chromeno[2,3-b]pyridine-5,4′-[1,3]oxazol]-2′-amine] | 3.1 | 14.3 |
| CC1(C)CN(c2cnc3c(c2)[C@]2(COC(N)=N2)c2cc(C#CC4CC4)ccc2O3)CCO1 [Example 179, (5S)-7-(cyclopropylethynyl)-3-(2,2-dimethyl-4-morpholinyl)spiro[chromeno[2,3-b]pyridine-5,4′-[1,3]oxazol]-2′-amine] | 11.1 | 64.1 |
| NC1=N[C@@]2(CO1)c1cc(C#CC3CC3)ccc1Oc1ncc(N3CCC(F)(F)CC3)cc12 [Example 181, (5S)-7-(cyclopropylethynyl)-3-(4,4-difluoro-1-piperidinyl)spiro[chromeno[2,3-b]pyridine-5,4′-[1,3]oxazol]-2′-amine] | 5.7 | 27.1 |
| CC1(C)CCN(c2cnc3c(c2)[C@]2(COC(N)=N2)c2cc(C#CC4CC4)ccc2O3)C1 [Example 182, (5S)-7-(cyclopropylethynyl)-3-(3,3-dimethyl-1-pyrrolidinyl)spiro[chromeno[2,3-b]pyridine-5,4′-[1,3]oxazol]-2′-amine] | 3.1 | 22 |
| NC1=N[C@@]2(CO1)c1cc(-c3cccnc3F)ccc1Oc1c(F)cc(N3CCC4(CC3)COC4)cc12 [Example 189, (4S)-4′-fluoro-7′-(2-fluoro-3-pyridinyl)-2′-(2-oxa-7-azaspiro[3.5]non-7-yl)spiro[1,3-oxazole-4,9′-xanthen]-2-amine] | 0.8 | 7.8 |
| N#Cc1cncc(-c2ccc3c(c2)[C@@]2(COC(N)=N2)c2cc(C4=CCOCC4)ccc2O3)c1 [Example 190, 5-((4R)-2-amino-7′-(3,6-dihydro-2H-pyran-4-yl)spiro[1,3-oxazole-4,9′-xanthen]-2′-yl)-3-pyridinecarbonitrile] | 10.3 | 23.1 |
| Cc1cnc(F)c(-c2ccc3c(c2)[C@@]2(COC(N)=N2)c2cc(C4=CCOCC4)ccc2O3)c1 [Example 191, (4R)-2′-(3,6-dihydro-2H-pyran-4-yl)-7′-(2-fluoro-5-methyl-3-pyridinyl)spiro[1,3-oxazole-4,9′-xanthen]-2-amine] | 5.6 | 35.6 |
| N#Cc1cccc(-c2ccc3c(c2)[C@@]2(COC(N)=N2)c2cc(C4=CCOCC4)ccc2O3)c1 [Example 195, 3-((4R)-2-amino-7′-(3,6-dihydro-2H-pyran-4-yl)spiro[1,3-oxazole-4,9′-xanthen]-2′-yl)benzonitrile] | 9.4 | 63.1 |
| COc1cccc(Nc2ccc3c(c2)[C@@]2(COC(N)=N2)c2cc(C4=CCOCC4)cc(F)c2O3)c1 [Example 197, (4S)-7′-(3,6-dihydro-2H-pyran-4-yl)-5′-fluoro-N~2~′-(3-methoxyphenyl)spiro[1,3-oxazole-4,9′-xanthene]-2,2′-diamine] | 36.8 | 680 |
| COc1cccc(Nc2ccc3c(c2)[C@@]2(COC(N)=N2)c2cc(N4CCOCC4)cc(F)c2O3)c1 [Example 198, (4S)-5′-fluoro-N~2~′-(3-methoxyphenyl)-7′-(4-morpholinyl)spiro[1,3-oxazole-4,9′-xanthene]-2,2′-diamine] | 77.9 | 572 |
| CC(C)(O)C#Cc1cc(F)c2c(c1)[C@]1(COC(N)=N1)c1cc(-c3cccnc3F)ccc1O2 [Example 199, 4-((4S)-2-amino-4′-fluoro-7′-(2-fluoro-3-pyridinyl)spiro[1,3-oxazole-4,9′-xanthen]-2′-yl)-2-methyl-3-butyn-2-ol] | 0.8 | 5.1 |
| Cc1cc(-c2cc(F)c3c(c2)[C@]2(COC(N)=N2)c2cc(-c4cccnc4F)ccc2O3)cc(=O)o1 [Example 200, 4-((4S)-2-amino-4′-fluoro-7′-(2-fluoro-3-pyridinyl)spiro[1,3-oxazole-4,9′-xanthen]-2′-yl)-6-methyl-2H-pyran-2-one] | 0.6 | 8.5 |
| NC1=N[C@@]2(CO1)c1cc(-c3cccnc3F)ccc1Oc1c(F)cc(-c3cccnn3)cc12 [Example 201, (4S)-4′-fluoro-7′-(2-fluoro-3-pyridinyl)-2′-(3-pyridazinyl)spiro[1,3-oxazole-4,9′-xanthen]-2-amine] | 1.8 | 7.6 |
| NC1=N[C@@]2(CO1)c1cc(-c3ccc(F)nc3)ccc1Oc1c(F)cc(N3CCOCC3)cc12 [Example 202, (4S)-4′-fluoro-7′-(6-fluoro-3-pyridinyl)-2′-(4-morpholinyl)spiro[1,3-oxazole-4,9′-xanthen]-2-amine] | 4.9 | 11.8 |

Further lines, results first:

| IC50 [1] [nM] | IC50 [2] [nM] | SMILES |
| --- | --- | --- |
| 1.2 | 3.2 | CC1(/C=C/c2cnc3c(c2)[C@]2(COC(N)=N2)c2cc(-c4ccc(F)nc4)ccc2O3)COC1 [Example 176, (5S)-7-(6-fluoro-3-pyridinyl)-3-((E)-2-(3-methyl-3-oxetanyl)ethenyl)spiro[chromeno[2,3-b]pyridine-5,4′-[1,3]oxazol]-2′-amine] |
| 0.4 | 1.8 | CC1(/C=C/c2cnc3c(c2)[C@]2(COC(N)=N2)c2cc(-c4cc(Cl)ccc4F)ccc2O3)COC1 [Example 177, (5S)-7-(5-chloro-2-fluorophenyl)-3-((E)-2-(3-methyl-3-oxetanyl)ethenyl)spiro[chromeno[2,3-b]pyridine-5,4′-[1,3]oxazol]-2′-amine] |
| 49.5 | 165 | Cn1ccc(-c2cnc3c(c2)[C@]2(COC(N)=N2)c2cc(C#CC(C)(C)C)ccc2O3)n1 [Example 180, (5S)-7-(3,3-dimethyl-1-butyn-1-yl)-3-(1-methyl-1H-pyrazol-3-yl)spiro[chromeno[2,3-b]pyridine-5,4′-[1,3]oxazol]-2′-amine] |
| 51.5 | 189 | Cn1ccc(-c2cnc3c(c2)[C@]2(COC(N)=N2)c2cc(C#CC4CC4)ccc2O3)n1 [Example 183, (5S)-7-(cyclopropylethynyl)-3-(1-methyl-1H-pyrazol-3-yl)spiro[chromeno[2,3-b]pyridine-5,4′-[1,3]oxazol]-2′-amine] |
| 14.1 | 294 | CC(C)CSc1cnc2c(c1)[C@]1(COC(N)=N1)c1cc(-c3cccnc3)ccc1O2 [Example 184, (5S)-3-((2-methylpropyl)sulfanyl)-7-(3-pyridinyl)spiro[chromeno[2,3-b]pyridine-5,4′-[1,3]oxazol]-2′-amine] |
| 5060 | 10000 | COc1ccc2c(c1)[C@@]1(COC(N)=N1)c1cc(SCc3ccccc3)cnc1O2 [Example 185, (5S)-3-(benzylsulfanyl)-7-methoxyspiro[chromeno[2,3-b]pyridine-5,4′-[1,3]oxazol]-2′-amine] |
| 0.5 | 3 | CC1(C#Cc2cnc3c(c2)[C@]2(COC(N)=N2)c2cc(-c4cncc(Cl)c4)ccc2O3)COC1 [Example 186, (5S)-7-(5-chloro-3-pyridinyl)-3-((3-methyl-3-oxetanyl)ethynyl)spiro[chromeno[2,3-b]pyridine-5,4′-[1,3]oxazol]-2′-amine] |
| 2.9 | 11.6 | CC1(C#Cc2cnc3c(c2)[C@]2(COC(N)=N2)c2cc(-c4cncc(C(F)(F)F)c4)ccc2O3)COC1 [Example 187, (5S)-3-((3-methyl-3-oxetanyl)ethynyl)-7-(5-(trifluoromethyl)-3-pyridinyl)spiro[chromeno[2,3-b]pyridine-5,4′-[1,3]oxazol]-2′-amine] |
| 4.5 | 86.6 | CC1(C#Cc2cnc3c(c2)[C@]2(COC(N)=N2)c2cc(-c4ccc(F)c(F)c4)ccc2O3)COC1 [Example 188, (5S)-7-(3,4-difluorophenyl)-3-((3-methyl-3-oxetanyl)ethynyl)spiro[chromeno[2,3-b]pyridine-5,4′-[1,3]oxazol]-2′-amine] |
| 13.1 | 35 | NC1=N[C@]2(CO1)c1cc(C3=CCOCC3)ccc1Oc1ccc(-c3cnccn3)cc12 [Example 192, (4R)-2′-(3,6-dihydro-2H-pyran-4-yl)-7′-(2-pyrazinyl)spiro[1,3-oxazole-4,9′-xanthen]-2-amine] |
| 7.5 | 18 | NC1=N[C@]2(CO1)c1cc(C3=CCOCC3)ccc1Oc1ccc(-c3cncc(F)c3)cc12 [Example 193, (4R)-2′-(3,6-dihydro-2H-pyran-4-yl)-7′-(5-fluoro-3-pyridinyl)spiro[1,3-oxazole-4,9′-xanthen]-2-amine] |
| 8 | 27.4 | COc1cncc(-c2ccc3c(c2)[C@@]2(COC(N)=N2)c2cc(C4=CCOCC4)ccc2O3)c1 [Example 194, (4R)-2′-(3,6-dihydro-2H-pyran-4-yl)-7′-(5-methoxy-3-pyridinyl)spiro[1,3-oxazole-4,9′-xanthen]-2-amine] |
| 1.1 | 7.7 | NC1=N[C@@]2(CO1)c1cc(-c3cccnc3F)ccc1Oc1c(F)cc(-c3ccncc3)cc12 [Example 203, (4S)-4′-fluoro-7′-(2-fluoro-3-pyridinyl)-2′-(4-pyridinyl)spiro[1,3-oxazole-4,9′-xanthen]-2-amine] |
| 0.5 | 4.5 | CC(C)(C#N)COc1cc(F)c2c(c1)[C@]1(COC(N)=N1)c1cc(-c3cncc(Cl)c3)ccc1O2 [Example 204, 3-(((4S)-2-amino-7′-(5-chloro-3-pyridinyl)-4′-fluorospiro[1,3-oxazole-4,9′-xanthen]-2′-yl)oxy)-2,2-dimethylpropanenitrile] |
| 1.6 | 10.1 | NC1=N[C@@]2(CO1)c1cc(-c3cccnc3F)ccc1Oc1c(F)cc(-c3cnccn3)cc12 [Example 205, (4S)-4′-fluoro-7′-(2-fluoro-3-pyridinyl)-2′-(2-pyrazinyl)spiro[1,3-oxazole-4,9′-xanthen]-2-amine] |

From patent US8883782B2, “Spiro-tetracyclic ring compounds as beta-secretase modulators and methods of use” (Amgen Inc., priority 2010, dated 2014)
